From ChEMBL document CHEMBL5214912, “Design, synthesis, and SAR study of novel 4,5-dihydropyrazole-Thiazole derivatives with anti-inflammatory activities for the treatment of sepsis” (Eur J Med Chem, 2021)
Active and inactive are the calls of the source. The rule behind the calls is not given here.

What was measured:
RAW264.7 [1] = test: Inhibition of LPS-induced NO production in mouse RAW264.7 cells at 1 uM pre-incubated for 1 hrs followed by LPS stimulation and measured after 24 hrs; assay type: functional, cell-based; settings: time 25.0 hrs
RAW264.7 [2] = test: Antiinflammatory activity in mouse RAW264.7 cells assessed as inhibition of LPS-induced NO production at 2.5 to 10 uM pre-incubated for 1 hrs followed by LPS stimulation and measured after 24 hrs; assay type: functional, cell-based; settings: dose 2.5-10 µM, time 25.0 hrs, DDE = dose-dependent effect
RAW264.7 [3] = test: Antiinflammatory activity in mouse RAW264.7 cells assessed as reduction in LPS-induced iNOS protein expression at 2.5 to 10 uM pre-incubated for 1 hrs followed by LPS stimulation and measured after 24 hrs by western blotting method; assay type: functional, cell-based; settings: dose 2.5-10 µM, time 25.0 hrs
RAW264.7 [4] = test: Antiinflammatory activity in mouse RAW264.7 cells assessed as reduction in LPS-induced TNF-alpha mRNA expression at 2.5 to 10 uM pre-incubated for 1 hrs followed by LPS stimulation and measured after 24 hrs by qRT-PCR assay; assay type: functional, cell-based; settings: dose 2.5-10 µM, time 25.0 hrs, DDE = dose-dependent effect
Mus musculus [5] = test: Antiinflammatory activity in LPS-induced sepsis in C57BL/6J mouse model assessed as reduction in morphological changes in kidney at 7 mg/kg,IG administrated for 72 hrs followed by LPS stimulation and measured after 12 hrs by H and E staining method; assay type: functional, organism-based; settings: time 84.0 hrs
Mus musculus [6] = test: Antiinflammatory activity in LPS-induced sepsis in C57BL/6J mouse model assessed as reduction in serum LDH level at 14 mg/kg,IG administrated for 72 hrs followed by LPS stimulation and measured after 12 hrs; assay type: functional, organism-based; settings: time 84.0 hrs
RAW264.7 [7] = test: Antiinflammatory activity in mouse RAW264.7 cells assessed as reduction in LPS-induced NF-kappaB phosphorylation at 2.5 to 10 uM pre-incubated for 1 hrs followed by LPS stimulation and measured after 24 hrs by immunofluorescence staining assay; assay type: functional, cell-based; settings: dose 2.5-10 µM, time 25.0 hrs
[8] = Toxicity in LPS-induced sepsis in C57BL/6J mouse model assessed as decrease in ratio of heart weight to body weight at 7 mg/kg,IG administrated for 72 hrs followed by LPS stimulation and measured after 12 hrs; assay type: organism-based; settings: in vivo, po, 84 h
[9] = Toxicity in LPS-induced sepsis in C57BL/6J mouse model assessed as decrease in ratio of spleen weight to body weight at 14 mg/kg,IG administrated for 72 hrs followed by LPS stimulation and measured after 12 hrs; assay type: organism-based; settings: in vivo, po, 84 h
Mus musculus [10] = test: Antiinflammatory activity in LPS-induced sepsis in C57BL/6J mouse model assessed as reduction in serum HBDH level at 7 mg/kg,IG administrated for 72 hrs followed by LPS stimulation and measured after 12 hrs; assay type: functional, organism-based; settings: time 84.0 hrs
RAW264.7 [11] = test: Antiinflammatory activity in mouse RAW264.7 cells assessed as reduction in LPS-induced JNK phosphorylation at 2.5 to 10 uM pre-incubated for 1 hrs followed by LPS stimulation and measured after 24 hrs by western blotting method; assay type: functional, cell-based; settings: dose 2.5-10 µM, time 25.0 hrs, DDE = dose-dependent effect
Mus musculus [12] = test: Antiinflammatory activity in LPS-induced sepsis in C57BL/6J mouse model assessed as reduction in inflammatory cell infiltration in liver at 14 mg/kg,IG administrated for 72 hrs followed by LPS stimulation and measured after 12 hrs by H and E staining method; assay type: functional, organism-based; settings: time 84.0 hrs
RAW264.7 [13] = test: Antiinflammatory activity in mouse RAW264.7 cells assessed as reduction in LPS-induced ERK phosphorylation at 2.5 to 10 uM pre-incubated for 1 hrs followed by LPS stimulation and measured after 24 hrs by western blotting method; assay type: functional, cell-based; settings: dose 2.5-10 µM, time 25.0 hrs, DDE = dose-dependent effect
Mus musculus [14] = test: Antiinflammatory activity in LPS-induced sepsis in C57BL/6J mouse model assessed as reduction in serum AST level at 7 mg/kg,IG administrated for 72 hrs followed by LPS stimulation and measured after 12 hrs; assay type: functional, organism-based; settings: time 84.0 hrs
[15] = Toxicity in LPS-induced sepsis in C57BL/6J mouse model assessed as decrease in ratio of kidney weight to body weight at 7 mg/kg,IG administrated for 72 hrs followed by LPS stimulation and measured after 12 hrs; assay type: organism-based; settings: in vivo, po, 84 h
Mus musculus [16] = test: Antiinflammatory activity in LPS-induced sepsis in C57BL/6J mouse model assessed as reduction in morphological changes in spleen at 7 mg/kg,IG administrated for 72 hrs followed by LPS stimulation and measured after 12 hrs by H and E staining method; assay type: functional, organism-based; settings: time 84.0 hrs
Mus musculus [17] = test: Antiinflammatory activity in LPS-induced sepsis in C57BL/6J mouse model assessed as reduction in serum creatinine level at 7 mg/kg,IG administrated for 72 hrs followed by LPS stimulation and measured after 12 hrs; assay type: functional, organism-based; settings: time 84.0 hrs
Mus musculus [18] = test: Antiinflammatory activity in LPS-induced sepsis in C57BL/6J mouse model assessed as reduction in serum Urea nitrogen level at 7 mg/kg,IG administrated for 72 hrs followed by LPS stimulation and measured after 12 hrs; assay type: functional, organism-based; settings: time 84.0 hrs
Mus musculus [19] = test: Antiinflammatory activity in LPS-induced sepsis in C57BL/6J mouse model assessed as reduction in morphological changes in heart at 7 mg/kg,IG administrated for 72 hrs followed by LPS stimulation and measured after 12 hrs by H and E staining method; assay type: functional, organism-based; settings: time 84.0 hrs
RAW264.7 [20] = test: Inhibition of LPS-induced NO production in mouse RAW264.7 cells at 10 uM pre-incubated for 1 hrs followed by LPS stimulation and measured after 24 hrs; assay type: functional, cell-based; settings: time 25.0 hrs
Mus musculus [21] = test: Antiinflammatory activity in LPS-induced sepsis in C57BL/6J mouse model assessed as reduction in inflammatory cell infiltration in liver at 7 mg/kg,IG administrated for 72 hrs followed by LPS stimulation and measured after 12 hrs by H and E staining method; assay type: functional, organism-based; settings: time 84.0 hrs
Mus musculus [22] = test: Antiinflammatory activity in LPS-induced sepsis in C57BL/6J mouse model assessed as reduction in morphological changes in heart at 14 mg/kg,IG administrated for 72 hrs followed by LPS stimulation and measured after 12 hrs by H and E staining method; assay type: functional, organism-based; settings: time 84.0 hrs
Mus musculus [23] = test: Antiinflammatory activity in LPS-induced sepsis in C57BL/6J mouse model assessed as reduction in serum Urea nitrogen level at 14 mg/kg,IG administrated for 72 hrs followed by LPS stimulation and measured after 12 hrs; assay type: functional, organism-based; settings: time 84.0 hrs
RAW264.7 [24] = test: Antiinflammatory activity in mouse RAW264.7 cells assessed as reduction in LPS-induced COX-2 protein expression at 2.5 to 10 uM pre-incubated for 1 hrs followed by LPS stimulation and measured after 24 hrs by western blotting method; assay type: functional, cell-based; settings: dose 2.5-10 µM, time 25.0 hrs
Mus musculus [25] = test: Antiinflammatory activity in LPS-induced sepsis in C57BL/6J mouse model assessed as reduction in serum HBDH level at 14 mg/kg,IG administrated for 72 hrs followed by LPS stimulation and measured after 12 hrs; assay type: functional, organism-based; settings: time 84.0 hrs
[26] = Toxicity in LPS-induced sepsis in C57BL/6J mouse model assessed as decrease in ratio of kidney weight to body weight at 14 mg/kg,IG administrated for 72 hrs followed by LPS stimulation and measured after 12 hrs; assay type: organism-based; settings: in vivo, po, 84 h
Mus musculus [27] = test: Antiinflammatory activity in LPS-induced sepsis in C57BL/6J mouse model assessed as reduction in morphological changes in kidney at 14 mg/kg,IG administrated for 72 hrs followed by LPS stimulation and measured after 12 hrs by H and E staining method; assay type: functional, organism-based; settings: time 84.0 hrs
Mus musculus [28] = test: Antiinflammatory activity in LPS-induced sepsis in C57BL/6J mouse model assessed as reduction in serum LDH level at 7 mg/kg,IG administrated for 72 hrs followed by LPS stimulation and measured after 12 hrs; assay type: functional, organism-based; settings: time 84.0 hrs
[29] = Toxicity in LPS-induced sepsis in C57BL/6J mouse model assessed as decrease in ratio of heart weight to body weight at 14 mg/kg,IG administrated for 72 hrs followed by LPS stimulation and measured after 12 hrs; assay type: organism-based; settings: in vivo, po, 84 h
Mus musculus [30] = test: Antiinflammatory activity in LPS-induced sepsis in C57BL/6J mouse model assessed as reduction in serum creatinine level at 14 mg/kg,IG administrated for 72 hrs followed by LPS stimulation and measured after 12 hrs; assay type: functional, organism-based; settings: time 84.0 hrs
Mus musculus [31] = test: Antiinflammatory activity in LPS-induced sepsis in C57BL/6J mouse model assessed as reduction in serum AST level at 14 mg/kg,IG administrated for 72 hrs followed by LPS stimulation and measured after 12 hrs; assay type: functional, organism-based; settings: time 84.0 hrs
[32] = Toxicity in LPS-induced sepsis in C57BL/6J mouse model assessed as decrease in ratio of spleen weight to body weight at 7 mg/kg,IG administrated for 72 hrs followed by LPS stimulation and measured after 12 hrs; assay type: organism-based; settings: in vivo, po, 84 h
Mus musculus [33] = test: Antiinflammatory activity in LPS-induced sepsis in C57BL/6J mouse model assessed as reduction in morphological changes in spleen at 14 mg/kg,IG administrated for 72 hrs followed by LPS stimulation and measured after 12 hrs by H and E staining method; assay type: functional, organism-based; settings: time 84.0 hrs
RAW264.7 [34] = test: Antiinflammatory activity in mouse RAW264.7 cells assessed as reduction in LPS-induced IL-1beta mRNA expression at 2.5 to 10 uM pre-incubated for 1 hrs followed by LPS stimulation and measured after 24 hrs by qRT-PCR assay; assay type: functional, cell-based; settings: dose 2.5-10 µM, time 25.0 hrs, DDE = dose-dependent effect
RAW264.7 [35] = test: Antiinflammatory activity in mouse RAW264.7 cells assessed as reduction in LPS-induced p38 phosphorylation at 2.5 to 10 uM pre-incubated for 1 hrs followed by LPS stimulation and measured after 24 hrs by western blotting method; assay type: functional, cell-based; settings: dose 2.5-10 µM, time 25.0 hrs, DDE = dose-dependent effect

COc1ccc(C2=NN(c3nc(C)cs3)C(c3ccc(C)cc3)C2)cc1 (centres undefined)
inhibition (RAW264.7 [1]): Active

Cc1csc(N2N=C(c3ccc(F)cc3)CC2c2ccc(Br)cc2)n1 (centres undefined)
inhibition (RAW264.7 [1]): Active

COc1ccc(C2=NN(c3nc(C)cs3)C(c3cc(OC)c(OC)c(OC)c3)C2)cc1 (centres undefined)
inhibition (RAW264.7 [1]): Active

Cc1ccc(C2CC(c3ccccc3Br)=NN2c2nc(C)cs2)cc1 (centres undefined)
inhibition (RAW264.7 [1]): Active

COc1ccccc1C1=NN(c2nc(C)cs2)C(c2ccc(Br)cc2)C1 (centres undefined)
inhibition (RAW264.7 [1]): Active

COc1ccccc1C1=NN(c2nc(C)cs2)C(c2ccccc2C)C1 (centres undefined)
Activity (RAW264.7 [2]): Dde | Activity (RAW264.7 [3]): Active | Activity (RAW264.7 [4]): Dde | inhibition (RAW264.7 [1]): Active | Activity (Mus musculus [5]): Active | Activity (Mus musculus [6]): Active | Activity (RAW264.7 [7]): Active | Activity [8]: Non-Toxic | Activity [9]: Non-Toxic | Activity (Mus musculus [10]): Active | Activity (RAW264.7 [11]): Dde | Activity (Mus musculus [12]): Active | Activity (RAW264.7 [13]): Dde | Activity (Mus musculus [14]): Active | Activity [15]: Non-Toxic | Activity (Mus musculus [16]): Active | Activity (Mus musculus [17]): Active | Activity (Mus musculus [18]): Active | Activity (Mus musculus [19]): Active | inhibition (RAW264.7 [20]): Active | Activity (Mus musculus [21]): Active | Activity (Mus musculus [22]): Active | Activity (Mus musculus [23]): Active | Activity (RAW264.7 [24]): Active | Activity (Mus musculus [25]): Active | Activity [26]: Non-Toxic | Activity (Mus musculus [27]): Active | Activity (Mus musculus [28]): Active | Activity [29]: Non-Toxic | Activity (Mus musculus [30]): Active | Activity (Mus musculus [31]): Active | Activity [32]: Non-Toxic | Activity (Mus musculus [33]): Active | Activity (RAW264.7 [34]): Dde | Activity (RAW264.7 [35]): Dde

COc1ccc(C2=NN(c3nc(C)cs3)C(c3ccc(Br)cc3)C2)cc1 (centres undefined)
inhibition (RAW264.7 [1]): Active

COc1ccccc1C1=NN(c2nc(C)cs2)C(c2ccc(C)cc2)C1 (centres undefined)
inhibition (RAW264.7 [1]): Active

COc1ccccc1C1=NN(c2nc(C)cs2)C(c2cc(OC)c(OC)c(OC)c2)C1 (centres undefined)
inhibition (RAW264.7 [1]): Active

Cc1csc(N2N=C(c3ccccc3Br)CC2c2ccc(Br)cc2)n1 (centres undefined)
inhibition (RAW264.7 [1]): Active
